Measurements: patent publication US8163737B2 (Vertex Pharmaceuticals Incorporated, priority 2006, dated 2012)

How the values were obtained:
endogenous CGRP receptor = endogenous CGRP receptor (Homo sapiens, UniProt O60894+Q16602); test: CGRP functional antagonism using SK-N-MC-BLA (4C10), β-lactamase transcriptional reporter assay; assay type: cell-based; conditions: SK-N-MC (4C10) cells, inhibition of β-lactamase expression in the presence of 200 pM CGRP
[1] = biological target: T1, CGRP receptor (SK-N-MC membrane) (Homo sapiens, UniProt O60894+Q16602); test: I125-CGRP binding displacement assay on purified SK-N-MC membrane
T1 construct: Purified SK-N-MC membrane was purchased from Perkin Elmer; purchased Perkin Elmer; host or cells: SK-N-MC membrane
Procedure, shortened: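 Displacement of I125-CGRP binding was measured by filtration and scintillation counting after 2 h room-temperature incubation with compound and SK-N-MC membranes (buffer pH 7.4, MgCl2, BSA, Tween). Percent displacement calculated against total binding and 1 uM cold CGRP nonspecific controls, then curve-fitted.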

T1 sequence (Q16602 23-461): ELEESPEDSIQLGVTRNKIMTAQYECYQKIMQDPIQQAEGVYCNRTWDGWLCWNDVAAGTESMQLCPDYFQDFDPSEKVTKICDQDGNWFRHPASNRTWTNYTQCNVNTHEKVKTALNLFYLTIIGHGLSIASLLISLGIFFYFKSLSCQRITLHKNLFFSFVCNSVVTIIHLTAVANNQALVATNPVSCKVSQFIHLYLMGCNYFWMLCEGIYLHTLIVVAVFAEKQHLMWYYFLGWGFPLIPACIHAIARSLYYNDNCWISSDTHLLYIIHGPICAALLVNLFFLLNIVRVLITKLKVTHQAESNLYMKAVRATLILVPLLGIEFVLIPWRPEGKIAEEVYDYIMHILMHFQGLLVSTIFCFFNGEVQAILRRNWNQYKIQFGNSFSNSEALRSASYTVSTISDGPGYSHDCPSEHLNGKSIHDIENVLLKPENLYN
T1 sequence (O60894 27-148): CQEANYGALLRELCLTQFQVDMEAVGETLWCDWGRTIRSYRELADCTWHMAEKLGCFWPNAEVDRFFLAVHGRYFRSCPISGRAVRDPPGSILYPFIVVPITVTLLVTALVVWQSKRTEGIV
endogenous CGRP receptor, sequence (Q16602 23-461): as the sequence (Q16602 23-461) above
endogenous CGRP receptor, sequence (O60894 27-148): as the sequence (O60894 27-148) above

Row | SMILES | IC50 (endogenous CGRP receptor) | Ki [1]
1 | CC(C)(C)CCN1C(=O)C(CC(=O)N2CCC(n3c(=O)[nH]c4ncccc43)CC2)SC1c1cccc(F)c1NCCN1CCOCC1 (stereo in doubt) [Compound 517, 1-(1-(2-((5S)-2-(2-(2-Morpholinoethylamino)-3-fluorophenyl)-3-(3,3-dimethylbutyl)-4-oxothiazolidin-5-yl)acetyl)piperidin-4-yl)-1H-imidazo[4,5-b]pyridin-2(3H)-one] | < 1000 nM | < 1000 nM
2 | COc1ccc(C2SC(CC(=O)N3CCC(N4Cc5ccccc5NC4=O)CC3)C(=O)N2CCC(C)C)c(F)c1 (centres unmarked) [Compound 283] | 1000 to 5000 nM | < 1000 nM
3 | CN1CCN(c2ccc(F)cc2[C@@H]2S[C@@H](CC(=O)N3CCC(n4c(=O)[nH]c5ncccc54)CC3)C(=O)N2CCC(C)(C)C)CC1 [Compound 394] | < 1000 nM | < 1000 nM
4 | O=C(CC1SC(Cc2ccccc2)N(CC(F)(F)F)C1=O)N1CCC(N2Cc3ccccc3NC2=O)CC1 (centres unmarked) [Compound 190] | > 5000 nM | 1000 to 5000 nM
5 | C#CCN1C(=O)C(CC(=O)N2CCC(N3Cc4ccccc4NC3=O)CC2)SC1c1ccccc1 (centres unmarked) [Compound 116] | 1000 to 5000 nM | < 1000 nM
6 | CN(C)[C@@H]1CCN(c2ccccc2C2SC(CC(=O)N3CCC(N4CCc5ccccc5NC4=O)CC3)C(=O)N2CCC(C)(C)C)C1 (some centres unmarked) [Compound 405] | 1000 to 5000 nM | < 1000 nM
7 | CC(C)(C)CCN1C(=O)C(CC(=O)N2CCC(N3CCc4ccccc4NC3=O)CC2)SC1c1ccc(F)cc1F (centres unmarked) [Compound 54] | < 1000 nM | < 1000 nM
8 | CC(C)N1CCN(c2c(F)cccc2[C@H]2S[C@@](C)(CC(=O)N3CCC(n4c(=O)[nH]c5ncccc54)CC3)C(=O)N2CCC(C)(C)C)CC1 [Compound 446] | < 1000 nM | < 1000 nM
9 | CC(C)(C)CCN1C(=O)[C@H](CC(=O)N2CCC(N3CCc4ccccc4NC3=O)CC2)SC1c1cccc(F)c1NCCN1CCCCC1 (stereo partly drawn) [Compound 520, 3-(1-(2-((5S)-2-(2-(2-(Piperidin-1-yl)ethylamino)-3-fluorophenyl)-3-(3,3-dimethylbutyl)-4-oxothiazolidin-5-yl)acetyl)piperidin-4-yl)-4,5-dihydro-1H-benzo[d][1,3]diazepin-2(3H)-one] | < 1000 nM | < 1000 nM
10 | Cc1cc(C2SC(CC(=O)N3CCC(N4Cc5ccccc5NC4=O)CC3)C(=O)N2CCC(C)C)cc2cn[nH]c12 (centres unmarked) [Compound 282] | < 1000 nM | < 1000 nM
11 | CC(C)(C)CCN1C(=O)[C@H](CC(=O)N2CCC(n3c(=O)[nH]c4ncccc43)CC2)SC1c1cccc(F)c1N1CCC(O)C1 (some centres unmarked) [Compound 484] | < 1000 nM | < 1000 nM
12 | Cc1cc(C2SC(CC(=O)N3CCC(N4CCc5ccccc5NC4=O)CC3)C(=O)N2CCC(C)(C)C)cc2cn[nH]c12 (centres unmarked) [Compound 3] | < 1000 nM | < 1000 nM
13 | CC(C)CCN1C(=O)C(CC(=O)N2CCC(n3cc(-c4ccccc4)[nH]c3=O)CC2)SC1c1ccc(F)cc1F (centres unmarked) [Compound 237] | < 1000 nM | > 5000 nM
14 | CC(C)CCN1C(=O)C(CC(=O)N2CCC(N3Cc4ccccc4NC3=O)CC2)[S+]([O-])C1c1ccc(F)cc1F (centres unmarked) [Compound 66] | < 1000 nM | < 1000 nM
15 | CC(C)CCN1C(=O)C(CC(=O)N2CCC(N3Cc4ccccc4NC3=O)CC2)SC1c1c(F)cccc1C(F)(F)F (centres unmarked) [Compound 256] | < 1000 nM | < 1000 nM
16 | CC(C)(C)CCN1C(=O)[C@H](CC(=O)N2CCC(n3c(=O)[nH]c4ncccc43)CC2)S[C@H]1c1cccc(F)c1N1CCN(C(C)(C)C)CC1 [Compound 436] | < 1000 nM | < 1000 nM
17 | CC(C)CCN1C(=O)C(CC(=O)N2CCC(N3CCc4ccccc4NC3=O)CC2)SC1c1c(F)cccc1C(F)(F)F (centres unmarked) [Compound 194] | < 1000 nM | < 1000 nM
18 | O=C(CC1SC(c2ccccc2)N(CC(F)(F)F)C1=O)N1CCC(N2Cc3ccccc3NC2=O)CC1 (centres unmarked) [Compound 109] | 1000 to 5000 nM | < 1000 nM
19 | O=C(CC1SC(c2ccccc2)N(CCc2ccccc2)C1=O)N1CCC(N2Cc3ccccc3NC2=O)CC1 (centres unmarked) [Compound 58] | < 1000 nM | < 1000 nM

Row | SMILES | IC50 (endogenous CGRP receptor) | Ki [1]
20 | CC(C)(C)CCN1C(=O)[C@H](CC(=O)N2CCC(N3CCc4ccccc4NC3=O)CC2)SC1c1ccn(C2CCNCC2)n1 (some centres unmarked) [Compound 491] | < 1000 nM | < 1000 nM
21 | Cc1ccc(C2SC(CC(=O)N3CCC(N4Cc5ccccc5NC4=O)CC3)C(=O)N2CCC(C)C)cc1C (centres unmarked) [Compound 204] | 1000 to 5000 nM | 1000 to 5000 nM
22 | CC(C)(C)CCN1C(=O)C(CC(=O)N2CCC(N3CCc4ccccc4NC3=O)CC2)SC1c1ccccc1-n1cccn1 (centres unmarked) [Compound 88] | < 1000 nM | < 1000 nM
23 | CC(C)CCN1C(=O)C(CC(=O)N2CCC3(CC2)CC(=O)c2ccccc2O3)SC1c1ccccc1N1CCN(C)CC1 (centres unmarked) [Compound 331] | < 1000 nM | < 1000 nM
24 | CC(C)(C)N1CCN(c2c(F)cccc2C2S[C@@H](CC(=O)N3CCC(n4c(=O)[nH]c5ncccc54)CC3)C(=O)N2CCc2ccccc2)CC1 (some centres unmarked) [Compound 509] | < 1000 nM | < 1000 nM
25 | CNC1CCN(c2c(F)cccc2[C@H]2S[C@@H](CC(=O)N3CCC(n4c(=O)[nH]c5ncccc54)CC3)C(=O)N2CCC(C)(C)C)C1 (some centres unmarked) [Compound 458] | < 1000 nM | < 1000 nM
26 | COc1ccc(C2SC(CC(=O)N3CCC(n4cc(-c5ccccc5)[nH]c4=O)CC3)C(=O)N2CCC(C)C)cc1OC (centres unmarked) [Compound 19] | > 5000 nM | > 5000 nM
27 | CC(C)CCN1C(=O)C(CC(=O)N2CCC(N3CCc4ccccc4NC3=O)CC2)SC1c1ccccc1 (centres unmarked) [Compound 78] | < 1000 nM | < 1000 nM
28 | CC(C)CCN1C(=O)C(CC(=O)N2CCC(N3Cc4ccccc4NC3=O)CC2)SC1c1ccccn1 (centres unmarked) [Compound 266] | < 1000 nM | < 1000 nM
29 | CN1CCN(c2ccccc2C2SC(CC(=O)N3CCC4(CC3)CNC(=O)c3ccccc3O4)C(=O)N2CCC(C)(C)C)CC1 (centres unmarked) [Compound 330] | 1000 to 5000 nM | < 1000 nM
30 | CC(C)CCN1C(=O)C(CC(=O)N2CCC(N3Cc4ccccc4NC3=O)CC2)SC1c1c(Cl)cccc1Cl (centres unmarked) [Compound 76] | < 1000 nM | < 1000 nM
31 | Cc1cc(C2SC(CC(=O)N3CCC(n4cc(-c5ccccc5)[nH]c4=O)CC3)C(=O)N2CCC(C)C)cc2cn[nH]c12 (centres unmarked) [Compound 248] | < 1000 nM | > 5000 nM
32 | Cc1ccccc1C1SC(CC(=O)N2CCC(N3Cc4ccccc4NC3=O)CC2)C(=O)N1CCC(C)C (centres unmarked) [Compound 172] | < 1000 nM | < 1000 nM
33 | CC(C)(C)N1CCN(c2c(F)cccc2[C@@H]2S[C@@H](CC(=O)N3CCC(N4CCc5ccccc5NC4=O)CC3)C(=O)N2Cc2ccccc2)CC1 [Compound 548] | < 1000 nM | < 1000 nM
34 | COCCN1C(=O)[C@H](CC(=O)N2CCC(N3CCc4ccccc4NC3=O)CC2)SC1c1cccc(F)c1N1CCN(C(C)(C)C)CC1 (some centres unmarked) [Compound 533] | < 1000 nM | < 1000 nM
35 | O=C(CC1SC(c2ccccc2)N(Cc2cccnc2)C1=O)N1CCC(N2Cc3ccccc3NC2=O)CC1 (centres unmarked) [Compound 278] | < 1000 nM | < 1000 nM
36 | Cc1cc(C2SC(CC(=O)N3CCC(N4Cc5ccccc5NC4=O)CC3)C(=O)N2CC2CCCCC2)cc2cn[nH]c12 (centres unmarked) [Compound 145] | < 1000 nM | < 1000 nM
37 | CC(C)CCN1C(=O)C(CC(=O)N2CCC(N3Cc4ccccc4NC3=O)CC2)SC12c1ccccc1-c1ccccc12 (centres unmarked) [Compound 14] | < 1000 nM | < 1000 nM
